The values below are quoted from earlier work in patent publication US7858570B2, “Compositions and methods for removing urushiol and treating the resulting skin condition” (priority 2004, dated 2010).

For data set [1] the following is noted: for cloud point: 1% H2O.
In data set [2] the test system is human immuno deficiency virus. To be noted: in the test tube.
For data set [3] the following is noted: in vivo.

Take “nonylphenol ethoxylate [10 mol nonylphenol ethoxylate]”: the pH in data set [1] (10% sol.) is recorded as 6.3. Consider “nonylphenol ethoxylate [5 mol nonylphenol ethoxylate]”, for which the cloud point entry in data set [1] is “less than 25 °C”. Turning to “nonylphenol ethoxylate [12 mol nonylphenol ethoxylate]”, the cloud point in data set [1] was 78-83 °C. For `CCCCCCCCCc1ccc(OCCOCCOCCOCCOCCOCCOCCOCCOCCO)cc1` [nonoxynol-9, nonylphenoxypolyethoxyethanol], the “concentration in a solution that stops HIV from reproducing” value in data set [2] is 0.05%. `NC(=O)NC1NC(=O)NC1=O` (centres unmarked) [allantoin, glyoxyl-diureide]: under “at 25° C.”, the solubility in water is listed as 0.5%. The “solubility (in words)” value (water and alcohol) was “soluble in water and alcohol”. On to “nonylphenol ethoxylate [2 mol nonylphenol ethoxylate]”, for which, in data set [1], the cloud point result is “less than 25 °C”. Consider “nonylphenol ethoxylate [8 mol nonylphenol ethoxylate]”, for which the cloud point entry in data set [1] was “less than 25 °C”. Take “nonylphenol ethoxylate [4 mol nonylphenol ethoxylate]”: the cloud point result in data set [1] is “less than 25 °C”. Regarding “nonylphenol ethoxylate [50 mol nonylphenol ethoxylate]”, in data set [1], the cloud point result is “greater than 100 °C”. For “nonylphenol ethoxylate [6 mol nonylphenol ethoxylate]”, the cloud point entry in data set [1] is “less than 25 °C”.

“nonylphenol ethoxylate [14 mol nonylphenol ethoxylate]”: in data set [1], the cloud point is 92-99 °C. Consider “nonylphenol ethoxylate [30 mol nonylphenol ethoxylate]”, for which, in data set [1], the cloud point result is “greater than 100 °C”. With urushiol, the “time from skin exposure until rash breaks out” value in data set [3] was 24 to 72 h.
